Data taken from US10226044B2, “Agricultural and horticultural composition and method for cultivating plant” (AJINOMOTO CO., INC., priority 2014, dated 2019).

Tests used:
[1] = system: cherry tomato (Micro-Tom); test: Sprinkling of Ile on cherry tomato (Micro-Tom): blooming, appearance, ripening and number of fruit; type: in vivo
Protocol: Three seeds of cherry tomato (Micro-Tom) were shown in compost contained in a slit pot (upper diameter 10.5 cm×height 8.8 cm), and cultivated in a biotron at a temperature of 23° C. with a light period of 14 hours (6:00 to 20:00) and dark period of 10 hours (20:00 to 6:00). As the compost, a mixture of Kumiai Nippi Engei Baido No. 1 (Nihon Hiryo) and vermiculite at a ratio of 3:1 (volume ratio) was used. After 3 weeks, one root clump was left, and the others were thinned out. From one month after the sowing to harvest, a 300-fold diluted solution of Hyponex liquid fertilizer (N:P:K=6:10:5, Hyponex Japan) was additionally applied as soil fertilizer by irrigation at a frequency of once a week in a volume of 100 mL per one root clump (pot). After the plants of five root clumps uniformly grew, and flower buds began to appear, water (Control, or Con) or 10 mM L-isoleucine aqueous solution (Ile) was sprinkled on the whole plants once a week. The sprinkled volume was 5 mL per one root clump. Then, the blooming, appearance of fruit, ripening of the fruit, and number of fruit produced were investigated for each root clump.

[2] = system: cherry tomato (Suncherry Pure); test: Antioxidant capacity of tomato fruit extract (DPPH radical method); type: in vivo; settings: 70% methanol extract of mature fruit; compared to tomatoes sprinkled with water (Con.) or Pro
Protocol: After the plants of four root clumps uniformly grew, and flower buds began to appear, water (Con.), 10 mM L-isoleucine aqueous solution (Ile), or 10 mM proline aqueous solution (Pro) was sprinkled on the whole plants once a week. The sprinkled volume was adjusted in accordance with the growth of the plants, and it was 15 to 30 mL per one root clump.

[3] = system: tomato fruit (Suncherry Pure); test: Coloring and carotenoid content of harvested immature tomato fruit sprinkled with Ile; type: in vivo
Protocol: Then, the beakers were closed with plastic wrap, and left for 5 hours; then the wrap was removed, and the fruit were left as they were. The test was performed at room temperature, and the sprinkling of water and Ile solution was performed twice in total at an interval of one week. […] The tomato fruit of which seeds were removed were frozen with liquid nitrogen, and ground in a mortar. […] The extraction mixture was centrifuged for 5 minutes (8000 rpm), and the chloroform layer as the lower layer was transferred to a new tube. Chloroform (0.5 mL) was added again to the former tube, extraction was performed in the same manner, and the chloroform layer was fully taken out, and transferred to the latter tube containing the aforementioned chloroform extract. Then, chloroform was evaporated from the obtained extract by using a centrifugal evaporator. Then, a sample solution was prepared by adding 0.5 mL of chloroform to the residue to dissolve it, and carotenoids contained in the sample solution were analyzed. For the measurement of carotenoids, the extraction sample was diluted 100 times with chloroform, and absorbance thereof was measured at the extinction wavelength of carotenoids (480 nm) by using DU800 Spectrophotometer (Beckman Coulter).

[4] = system: LOX, JAR1, PI and MYC2 genes; test: Real-time PCR of jasmonic acid synthesis and response genes in leaves after foliar application; type: in vivo, cherry tomato (Suncherry Pure); settings: 10 mM Ile, 3 hours after foliar application
Protocol: Three hours after the foliar application, leaves of the same part were collected, and RNA was isolated by using SV Total RNA Isolation System™ (Promega) according to the manual of the kit. […] Expression of the 13-lipoxygenase (LOX) gene locating in the upstream of the jasmonic acid biosynthesis pathway, and the gene for synthesis of JA-Ile from JA and Ile (JASMONATE RESISTANT 1 (JAR1)) were analyzed. The expression amounts of the genes are represented as relative expression amounts with respect to that of the actin gene. The results of real-time PCR analysis of the jasmonic acid responding genes, protease inhibitor (PI) and MYC2 genes, performed by using the aforementioned cDNAs as the template are shown in FIG. 13. By the sprinkling of Ile, expression of the PI and MYC2 genes were increased.

[5] = system: LOX, JAR1, PI and MYC2 genes; test: Investigation of isoleucine concentration for sprinkling (I): gene expression; type: in vivo, cherry tomato (Suncherry Pure); settings: 1 mM, 4 mM, 7 mM or 10 mM Ile, 20 mL per plant, sprinkled twice; leaves 3 hours after second sprinkling
Protocol: One week afterward, Ile was sprinkled again in the same manner, the leaves were collected 3 hours thereafter, and expression of the LOX, JAR1, PI and MYC2 genes were analyzed in the same manner as described in Example 5.

[6] = system: VR callus derived from European grape; test: Anthocyanin content of grape calluses treated with amino acids; type: cell-based, Vitis vinifera L.
Protocol: A cell line (VR, management number RPC00003) derived from European grape (Vitis vinifera L.) and stored in the Institute of Physical and Chemical Research, BioResource Center was subcultured on the MS agar medium. The subcultured VR callus was transferred to the MS agar medium containing a 5 mM solution of a different amino acid, and cultured. For the positive control, abscisic acid (ABA), for which coloring-promoting effect is known, was used at 100 μM (Jeong et al., Plant Science, 167:247-252, 2004). On the 5th day after the transfer, the callus was lyophilized and ground, and anthocyanin was extracted from it by using a 1% HCl/MeOH solution. Absorbance of the extract was measured at 530 nm, and the content of anthocyanin was measured by using cyanidine 3-glucoside as a standard substance.
(2) In the same manner as described above, anthocyanin content of grape calluses treated with isoleucine and proline, respectively, were measured.

[7] = system: Apples (variety, Tsugaru); test: Anthocyanin content of pericarp of harvested apples immersed in Ile solutions; type: in vivo, apple; settings: immersed 15 minutes in Ile solutions (1, 5, 10 mM) + 0.1% Applauch BI; 10th and 15th days after the treatment; compared to control group
Protocol: Apples (variety, Tsugaru) ready to mature (before coloring) were harvested, washed with tap water and then with distilled water, and immersed into water (control) and isoleucine (Ile) aqueous solutions of various concentrations for 15 minutes. To each treatment solution, 0.1% Applauch BI (Kao) was added. The treatment groups consisted of the following groups.
After the treatment, the apples were air-dried, and left standing in an incubator. The conditions consisted of constant temperature of 20° C., lighting condition of 120 μM/m^2/s obtained with 9 of 40 W fluorescent lamps, and daylength conditions of 16 hours of light period and 8 hours of dark period per day.
Pericarp color of the apples was evaluated by measuring anthocyanin content. Pericarp (0.5 g) collected from an apple of each treatment group was immersed in 5 mL of 2% formic acid at 4° C. for 24 hours to extract anthocyanin. Anthocyanin contained in the extract was analyzed by liquid chromatography. Since most part of anthocyanin of apple consists of cyanidin galactosides, anthocyanin concentration was calculated as cyanidin galactoside concentration.

[8] = 10 mM, once a week, compared to control
[9] = relative to actin, compared to water (Con.)

Compound: CC[C@H](C)[C@H](N)C(=O)O [Ile, L-isoleucine]
- Blooming and appearance of the fruit ([1]; 10 mM L-isoleucine sprinkled on whole plants once a week, 5 mL per root clump, compared to water (Con)): occurred sooner
- Ripening of the tomatoes (fruit turned orange or red) [1, 8]: began earlier
- number of colored tomatoes at the same time point [1, 8]: larger
- numbers of blooms and fruit ([1]; 10 mM, once a week, compared to water (Con)): larger
- number of harvested tomatoes, larger as compared to control ([1]; 10 mM, once a week, harvest on the 82nd day after sowing): 20%
- antioxidant capacity (free radical-eliminating ability, DPPH) [2]: higher
- color of harvested fruit around the 27th day ([3]; 10 mM Ile, 1 mL on six immature fruit, twice at an interval of one week, room temperature, water control still green): began to turn color
- color of harvested fruit around the 34th day ([3]; 10 mM Ile, sprinkled twice, water control still half-mature orange): turned color to a fully mature red
- carotenoid content of the tomato fruit ([3]; around the 27th day, absorbance at 480 nm, compared to fruit treated with water): higher
- expression of the MYC2 gene [4]: increased
- expression of the PI gene [4]: increased
- Expression of the JAR1 gene in leaves [4, 9]: significantly higher
- Expression of the LOX gene in leaves [4, 9]: significantly higher
- Expression of the LOX, JAR1, PI and MYC2 genes [5]: increased substantially in an Ile concentration-dependent manner
- anthocyanin content of callus, comparison of amino acids ([6]; 5 mM, 5th day): highest
- change in color of the grape callus (anthocyanin content) ([6]; Ile of 1 mM or higher, Pro compared with Ile): promoted
- anthocyanin content of apple pericarp [7]: higher
